This is an account of results in patent US8815260B1, “Treatment of restenosis and stenosis with dasatinib” (University of South Florida, priority 2005, dated 2014).

Series [1] deals with porcine SMC. Conditions: Banai et al., 1998; cited from earlier work.
In series [2] the test system is STAT3, Akt, Erk2. Put plainly: PDGF-stimulated activation of STAT3, Akt and Erk2 in A10 cells (immunoblotting). Format: cell-based, rat. A general note: Immunoblotting shows a protein as a band on a membrane.
Series [3] has as its system STAT3, Akt, Erk2. Description: PDGF-stimulated activation of STAT3, Akt and Erk2 in primary human AoSMCs. Format: cell-based. Conditions: 0-50 nM, not reduced below basal activation state.
Series [4] concerns A10 cells. Description: Flow cytometric analysis of cell cycle phase distribution, PDGF-treated A10 cells. Format: cell-based, rat. Conditions: PDGF 10 ng/ml plus 50 nM.
Series [5] has as its target PDGFRβ (Rattus norvegicus, UniProt Q05030). Conditions: A10 cells.
For series [6] the following is noted: cited from earlier work.
Series [7] addresses IGF-1R (Rattus norvegicus, UniProt P24062). As to conditions: A10 cells, up to 50 nM, IGF-1 10 ng/ml 10 min.
Series [8] has as its system PDGFR. Conditions: Buchdunger et al., 1996; Sanz-Gonzalez et al., 2004; cited from earlier work.

SMILES strings stand for the structures. Like-named read-outs stand apart in the source and are kept apart here.

Chain of PDGFRβ (Q05030 32-1097): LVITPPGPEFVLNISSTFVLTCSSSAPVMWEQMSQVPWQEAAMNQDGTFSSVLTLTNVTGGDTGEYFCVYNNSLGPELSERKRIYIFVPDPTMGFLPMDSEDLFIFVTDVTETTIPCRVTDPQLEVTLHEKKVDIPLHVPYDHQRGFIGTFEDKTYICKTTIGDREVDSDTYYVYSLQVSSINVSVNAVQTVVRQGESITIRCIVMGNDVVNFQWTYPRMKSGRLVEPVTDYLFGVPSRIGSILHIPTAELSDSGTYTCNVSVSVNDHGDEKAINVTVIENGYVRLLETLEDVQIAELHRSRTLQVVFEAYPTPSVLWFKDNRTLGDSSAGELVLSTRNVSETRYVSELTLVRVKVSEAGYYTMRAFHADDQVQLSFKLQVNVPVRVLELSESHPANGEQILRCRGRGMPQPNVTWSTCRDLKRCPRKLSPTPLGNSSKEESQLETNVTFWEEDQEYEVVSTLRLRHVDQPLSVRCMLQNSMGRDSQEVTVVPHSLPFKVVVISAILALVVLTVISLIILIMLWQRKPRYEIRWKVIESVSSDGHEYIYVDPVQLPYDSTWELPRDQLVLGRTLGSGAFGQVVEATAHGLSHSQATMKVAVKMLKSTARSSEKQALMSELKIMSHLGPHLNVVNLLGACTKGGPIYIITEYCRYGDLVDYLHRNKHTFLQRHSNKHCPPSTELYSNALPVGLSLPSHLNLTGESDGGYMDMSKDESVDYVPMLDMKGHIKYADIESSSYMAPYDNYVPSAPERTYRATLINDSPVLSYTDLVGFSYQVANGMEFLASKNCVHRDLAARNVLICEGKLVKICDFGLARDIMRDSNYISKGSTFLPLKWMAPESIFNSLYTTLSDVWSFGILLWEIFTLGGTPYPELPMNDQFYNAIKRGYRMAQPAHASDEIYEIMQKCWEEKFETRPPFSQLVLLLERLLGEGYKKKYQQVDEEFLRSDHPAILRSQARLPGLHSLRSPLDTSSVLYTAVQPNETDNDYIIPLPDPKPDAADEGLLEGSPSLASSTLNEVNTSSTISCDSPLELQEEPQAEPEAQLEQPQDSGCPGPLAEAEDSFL
Chain of IGF-1R (P24062 31-1370): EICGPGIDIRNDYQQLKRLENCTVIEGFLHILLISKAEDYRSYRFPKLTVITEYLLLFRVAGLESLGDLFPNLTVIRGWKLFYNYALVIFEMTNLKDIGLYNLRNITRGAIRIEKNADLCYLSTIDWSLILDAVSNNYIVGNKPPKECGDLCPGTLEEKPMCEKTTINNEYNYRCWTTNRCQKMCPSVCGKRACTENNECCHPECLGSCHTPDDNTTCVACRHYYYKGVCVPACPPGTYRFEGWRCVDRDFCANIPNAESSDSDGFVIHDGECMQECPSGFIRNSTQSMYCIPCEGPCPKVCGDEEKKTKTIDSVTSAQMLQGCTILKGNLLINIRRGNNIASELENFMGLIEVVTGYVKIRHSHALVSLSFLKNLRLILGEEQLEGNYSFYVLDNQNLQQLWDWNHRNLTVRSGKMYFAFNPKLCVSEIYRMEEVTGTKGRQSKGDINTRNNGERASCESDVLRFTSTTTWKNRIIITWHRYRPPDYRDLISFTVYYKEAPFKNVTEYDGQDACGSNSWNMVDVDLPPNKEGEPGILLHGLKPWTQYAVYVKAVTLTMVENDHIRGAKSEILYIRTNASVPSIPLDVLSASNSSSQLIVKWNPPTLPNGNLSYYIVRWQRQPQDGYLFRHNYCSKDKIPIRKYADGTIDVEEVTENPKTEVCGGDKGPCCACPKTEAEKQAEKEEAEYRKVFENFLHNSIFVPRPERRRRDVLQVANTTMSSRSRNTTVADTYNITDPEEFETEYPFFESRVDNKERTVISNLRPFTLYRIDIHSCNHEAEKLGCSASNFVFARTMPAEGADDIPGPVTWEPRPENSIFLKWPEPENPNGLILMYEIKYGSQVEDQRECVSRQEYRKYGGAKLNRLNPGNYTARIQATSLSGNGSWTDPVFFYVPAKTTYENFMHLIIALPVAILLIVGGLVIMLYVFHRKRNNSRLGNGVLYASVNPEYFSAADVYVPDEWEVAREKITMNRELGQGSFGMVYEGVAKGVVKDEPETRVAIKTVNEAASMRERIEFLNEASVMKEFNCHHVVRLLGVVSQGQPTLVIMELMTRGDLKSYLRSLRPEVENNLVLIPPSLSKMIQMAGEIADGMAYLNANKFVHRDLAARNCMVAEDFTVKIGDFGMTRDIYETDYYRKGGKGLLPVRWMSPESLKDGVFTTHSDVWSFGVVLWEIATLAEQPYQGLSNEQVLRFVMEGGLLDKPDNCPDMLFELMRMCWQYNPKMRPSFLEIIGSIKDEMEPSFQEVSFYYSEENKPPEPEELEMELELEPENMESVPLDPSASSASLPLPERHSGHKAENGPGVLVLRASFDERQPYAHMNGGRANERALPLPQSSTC

In the case of `Cc1cc2ncc(-c3ccccc3)nc2cc1C` [AG-1295], the “inhibition of porcine SMC proliferation, nature of the effect” value in series [1] was “reversible and not toxic”.

By Cmax is commonly meant the highest concentration seen after dosing. On to `Cc1nc(Nc2ncc(C(=O)Nc3c(C)cccc3Cl)s2)cc(N2CCN(CCO)CC2)n1` [BMS-354825, N-(2-chloro-6-methylphenyl)-2-[[6-[4-[(2-hydroxyethyl)-1-piperazinyl]-2-methyl-4-pyrimidinyl]amino]-5-thiazolecarboxamide, monohydrate], for which the “PDGF-stimulated activation of STAT3, Akt and Erk2 (activation-specific phosphorylation)” value in series [2] (50 nM, PDGF-BB 5 ng/ml) is reported as “inhibited”. Further, in series [3], the “PDGF-induced further activation of STAT3” value is “blocked”. For the same compound, in series [4] (16 h (PDGF alone 10.74%, no PDGF 0.99%)), the “percentage of cells in G2 phase” value is 3.75%. Moreover, the “percentage of cells in S phase” value in series [4] (16 h (PDGF alone 23.83%, no PDGF 10.4%)) came out at 7.99%. In addition, the “percentage of cells in G1 phase” value in series [4] (16 h (PDGF alone 65.44%, no PDGF 88.65%)) is recorded as 88.29%. For the same compound, the “PDGF-stimulated PDGFRβ tyrosine phosphorylation” value in series [5] (50 nM, PDGF-BB 5 ng/ml, all time points (0-30 min)) was “effectively blocked”. For the same compound, the Cmax was 60 to 120 nM in series [6] (BMS-354825 dosing for CML, oral, read-out: Cmax) and 30 to 60 ng/mL in series [6] (oral delivery route, 140 mg/day). The “inhibition of IGF-1R tyrosine phosphorylation” value in series [7] is recorded as “No detectable inhibition”.

Turning to `Cc1ccc(NC(=O)c2ccc(CN3CCN(C)CC3)cc2)cc1Nc1nccc(-c2cccnc2)n1` [imatinib], the “concentration giving complete inhibition of PDGF-stimulated Akt and Erk2 activation” value in series [2] (PDGF-BB 5 ng/ml 5 min) came to 5 µM. The “decrease in STAT3 tyrosine phosphorylation” value in series [2] (PDGF-BB 5 ng/ml 5 min, relative to the 5 μM needed for Akt and Erk2) is recorded as “appeared at lower concentrations”. The “concentration required for the same level (complete block) of PDGFR inhibition” value in series [5] (parallel experiments, PDGF-BB 5 ng/ml 5 min) was 5 µM. For the same compound, the “concentrations required for inhibition of PDGFR in cell-based assays” value in series [8] is reported as “micromolar concentrations”.
